In BindingDB's records for doi:10.1021/np070259w (Institute of Plant Biochemistry, 2007):
Structures can show the parent of a compound that is named as a salt.

Assay: Inhibition of equine BChE at 100 uM by Ellman's method

## CNC(=O)Oc1ccc2c(c1)[C@]1(C)CCN(C)[C@@H]1N2C [(3aS,8aR)-1,3a,8-trimethyl-1,2,3,3a,8,8a-hexahydropyrrolo[2,3-b]indol-5-yl methylcarbamate hydrochloride]
  IC50: 3.5 µM
